Measurements reported in US20240044763A1, “GASTROINTESTINAL TRACT SIMULATION SYSTEM AND METHOD” (ProDigest, priority 2020, published 2024).
Where a name gives a salt, the structure may show the parent alone. Read-outs that look alike come from different tables or passages of the source.

Key:
[1] = gastrointestinal tract simulation system, fasted state, Sporanox solution with or without water; type: in vitro ADME
Method: FIGS. 5A-7B are a series of graphs showing the results of an experiment, simulating fasted state conditions, in which tests are performed in an experimental setup as shown in FIG. 1. […] At the start of the first experimental run, 20 mL of Sporanox® solution (corresponding to a dose of 200 mg itraconazole) was added to the stomach (without water) (Vdose 1=20 mL) whereas at the start of the second run, 20 mL of Sporanox solution was added together with 240 mL of water to the first compartment (with water) (Vdose 2=260 mL). […] Itraconazole concentrations were determined through UHPLC chromatography coupled to UV detection. All experiments were performed in biological triplicate.

[2] = cited from earlier work
[3] = cited from earlier work; remark: listed apart in the source

SMILES | area under the curve of the permeated compound ([1]; with versus without water, outer vessel (sink)) | behaviour of itraconazole in the duodenum ([1]; without water, duodenum pH 6.5) | aqueous solubility [2] | AUC of solute concentration in the duodenum (fed state with carbohydrate solution compared to fasted state) | AUC of solute concentration in the duodenum (fed state with elevated stomach pH) | decrease in indinavir bioavailability ([3]; high carbohydrate meal compared to fasted) | decrease in indinavir bioavailability ([3]; high fat meal compared to fasted) | decrease in indinavir bioavailability ([3]; high protein meal compared to fasted)
CCC(C)n1ncn(-c2ccc(N3CCN(c4ccc(OCC5COC(Cn6cncn6)(c6ccc(Cl)cc6Cl)O5)cc4)CC3)cc2)c1=O (centres unmarked) [Itraconazole, itraconazole] | absence of a substantial difference | precipitation of a fraction of the administered dose | very low aqueous solubility | – | – | – | – | –
CC(C)(C)NC(=O)[C@@H]1CN(Cc2cccnc2)CCN1C[C@@H](O)C[C@@H](Cc1ccccc1)C(=O)N[C@H]1c2ccccc2C[C@H]1O [indinavir sulfate] | – | – | – | increased | decreased substantially | 45% | 34% | 68%
